Results reported in PubChem BioAssay AID463199 (Broad Institute, 2010).
Active and inactive are the calls of the source.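 Rule for the calls: active = AC50, the dose giving half-maximal effect, exceeds a fixed cutoff for a compound that rescues yeast growth under heat; inactive = the rest, inconclusive results apart.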

What follows are compounds tested on S. cerevisiae Burl-1 ts mutant growth, BacTiter-Glo, 38.5C 24 h (assay: growth induction of Burl-1 ts yeast mutant, dose response, counter-screen for SUMOylation pathway inhibitor project, whole organism, S. cerevisiae, luminescence (AID 463199)).

Row | SMILES | AC50
1 | Cc1cc([N+](=O)[O-])ccc1NC(=O)CSc1nccc(=O)[nH]1 | > 42 µM (inactive)
2 | CSCCC(NC(=O)c1ccco1)C(=O)N1CCN(Cc2ccccc2)CC1 (centres undefined) | > 42 µM (inactive)
3 | c1ccc(CCCc2nc(-c3cccnc3)no2)cc1 | > 42 µM (inactive)
4 | CN(C/C=C/c1ccccc1[N+](=O)[O-])Cc1ccccc1 | > 42 µM (inactive)
5 | N=c1c2c(n(Cc3ccc(Cl)c(Cl)c3)c3c1CCC3)CCCC2 | > 42 µM (inactive)
6 | COc1ccc(CN(CC(=O)NCc2ccco2)C(=O)CCC(=O)Nc2nccs2)cc1 | > 42 µM (inactive)
7 | CN(C(=O)CSc1nc(-c2ccccc2)c(-c2ccccc2)o1)C1CCS(=O)(=O)C1 (centres undefined) | > 42 µM (inactive)
8 | NC1=NC(=Nc2ccc(S(N)(=O)=O)cc2)c2ccccc21 | > 21 µM (inactive)
9 | CN(C(=O)COC(=O)c1cc(-c2ccc(Cl)s2)nc2ccccc12)C1CCS(=O)(=O)C1 (centres undefined) | > 42 µM (inactive)
10 | O=C(CCCc1nc(-c2ccc(Cl)cc2)no1)NC1CCCCC1 | > 42 µM (inactive)
11 | CN1CC2(C)OC(=O)C(Cl)=C2CC1c1ccccc1 (centres undefined) | > 42 µM (inactive)
12 | Fc1cccc(Cl)c1CSc1nnc(CN2CCOCC2)n1-c1ccccc1 | > 42 µM (inactive)
13 | O=C(NCc1ccccc1)c1cccc(COc2ccc(Cl)cc2)c1 | > 42 µM (inactive)
14 | O=C1CCCN1CCC1CCN(C2CC(=O)N(c3ccc(Cl)cc3)C2=O)CC1 (centres undefined) | > 42 µM (inactive)
15 | COC(=O)c1sc2ccccc2c1NC(=O)c1ccc(S(=O)(=O)N2CCCC(C)C2)cc1 (centres undefined) | > 42 µM (inactive)
16 | NC(=O)c1cc(S(=O)(=O)N2CCCC2)ccc1OCc1ccc(F)cc1 | > 42 µM (inactive)
17 | CN(CCOc1ccc(Cl)cc1)CC(=O)Nc1ccc(OC(F)F)cc1 | > 42 µM (inactive)
18 | N#CC1=C(N)Nc2ncnn2C1c1ccc([N+](=O)[O-])cc1 (centres undefined) | > 42 µM (inactive)
19 | O=C(Nc1nc(-c2ccccn2)cs1)c1ccc2c(c1)OCCO2 | > 42 µM (inactive)
20 | Cc1ccc(NC(=O)Cn2c(CCC(=O)O)ccc2-c2cccs2)cc1 | > 42 µM (inactive)
21 | COC(=O)C(NC(C)=O)(Nc1nc2ccc(S(C)(=O)=O)cc2s1)C(F)(F)F (centres undefined) | > 42 µM (inactive)
22 | Cc1cc(C(=O)COc2cccc3cccnc23)c(C)n1C | > 42 µM (inactive)
23 | CCN1C(=NCCCCO)N[C@@H](c2cccc(C(F)(F)F)c2)C(C(=O)OC)=C1C | > 42 µM (inactive)
24 | C=CCN1C(=O)/C(=C2/Sc3ccc(OC)cc3N2C)SC1=Nc1ccccc1 | > 42 µM (inactive)
25 | Cc1ccc(NC(=S)NC(NC(=O)c2ccccc2C)C(Cl)(Cl)Cl)c(C)c1 (centres undefined) | > 42 µM (inactive)

Row | SMILES | AC50
26 | C=C(C)C(=O)Nc1cccnc1Oc1ccc(F)cc1F | > 42 µM (inactive)
27 | COc1ccccc1C(=O)N(NC(=O)Oc1ccccc1)C(C)(C)C | > 42 µM (inactive)
28 | O=C1CN(C(=O)c2c(F)cccc2F)C(c2ccc(F)cc2)c2cc(F)ccc2N1 (centres undefined) | > 42 µM (inactive)
29 | COc1cc(COc2ccc3c(C)c(CC(=O)O)c(=O)oc3c2C)cc(OC)c1OC | > 42 µM (inactive)
30 | c1ccc(CNc2ccc3ccccc3n2)nc1 | > 42 µM (inactive)
31 | CC(C(=O)NCCN1CCOCC1)(c1ccccc1)c1ccccc1 | > 42 µM (inactive)
32 | COc1ccc(NC(=O)CN(C)C(=O)c2cc(C)on2)cc1 | > 42 µM (inactive)
33 | Cc1cnc(NC(=O)CN2CCN(c3ccccc3F)CC2)s1 | > 42 µM (inactive)
34 | COc1cc(SC)ccc1C(=O)N1CCCCCC1 | > 42 µM (inactive)
35 | Fc1cccc(NC(=S)N2CCn3cccc3C2c2cccnc2)c1 (centres undefined) | > 42 µM (inactive)
36 | Cc1ccc(C)c(OCCCC(=O)N2CCOCC2)c1 | > 42 µM (inactive)
37 | Cc1ccc(N(CC(=O)NC2CCCC2)C(=O)CCC(=O)Nc2ccccn2)cc1C | > 42 µM (inactive)
38 | O=C(NC1CCCC1)C(c1cccs1)N(C(=O)c1ccno1)c1ccccc1 (centres undefined) | > 42 µM (inactive)
39 | CS(=O)(=O)c1ccc(Cl)c(C(=O)O)c1 | > 42 µM (inactive)
40 | O=C(O)CCC(=O)Nc1cccc(C(=O)Nc2ccc(Br)cc2)c1 | > 42 µM (inactive)
41 | CC1=CC2=NC(=O)/C(=C\c3cc(C)n(-c4ccccc4)c3C)C(=N)N2O1 | > 42 µM (inactive)
42 | CCOC(=O)c1c(C)[nH]c2c1cc(O)c1ccccc12 | > 42 µM (inactive)
43 | CN(C(=O)c1cncc(Br)c1)C1C2CC3CC(C2)CC1C3 (centres undefined) | 8.94 µM
44 | C/C(=N/OCO/N=C(\C)c1ccccc1)c1ccccc1 | > 42 µM (inactive)
45 | CC(=O)c1cccc(N2C(=NC(=O)C3CCCCC3)SC3CS(=O)(=O)CC32)c1 (centres undefined) | > 42 µM (inactive)
46 | NC(=O)CC(NC(=O)Cc1cccc2ccccc12)c1ccc(NCCCN2CCCC2=O)c([N+](=O)[O-])c1 (centres undefined) | > 42 µM (inactive)
47 | CCOc1ccc(-n2cc(C(=O)NCCOC)c3cc(OC)c(OC)cc3c2=O)cc1 | > 42 µM (inactive)
48 | COCC(=O)NNC(=O)c1ccccc1OC | > 42 µM (inactive)
49 | CCc1ccc2[nH]c(=O)c(C(c3nnnn3Cc3ccccc3)N3CCOCC3)cc2c1 (centres undefined) | > 42 µM (inactive)
